# pIC50: −log10 of the molar value.
# Columns and labels:
# Format in all cases: biochemical
# [1] = molecular target: T1, JAK1 (Homo sapiens, UniProt P23458); test: In vitro enzyme assay (cell-free HTRF kinase assay), JAK1; settings: catalytic domain aa 850-1154, GST-tag; ATP 60 μM, SRCtide 400 nM, reaction 120 min
# T1 construct: JAK1 (aa 850-1154) and TYK2 (aa 871-1187) are expressed with an N-terminally fused GST-tag; GST (N); purchased Carna Bioscience, Inc; host or cells: baculovirus expression system
# Experimental: (§1) Kinase buffer [50 mM HEPES (pH 7.5), 1 mM EGTA, 10 mM MgCl2, 2 mM DTT and 0.01% Tween-20) was prepared and dilutions of a compound of formula (I) and other reagents were subsequently made in it. Two times concentrated compound of formula (I) solution: A compound of formula (I) was diluted to 100-fold final concentration in DMSO, followed by 50-fold dilution with Kinase buffer (1% DMSO final concentration). Four times concentrated Substrate/ATP mix solution: Biotin-SRCtide and ATP were diluted to 4-fold final concentration in Kinase buffer. Biotin-SRCtide solution (purchased from Anaspec) was mixed with ATP solution (1:1). Four times concentrated Enzyme solution: JAK1 or JAK2 or JAK3 or TYK2 enzyme [Human baculo virus expressed JAK1, JAK2, JAK3 and TYK2 were purchased from Carna Bioscience, Inc. All enzymes only contain the catalytic domain. JAK1 (aa 850-1154) and TYK2 (aa 871-1187) are expressed with an N-terminally fused GST-tag, and JAK2 and JAK3 with an N-terminally fused His-tag] was diluted to 4-fold final concentration in Kinase buffer and always kept on ice. Detection buffer: LANCE detection buffer (10 times concentrated) was diluted 10-fold in H2O. Four times concentrated stop solution: EDTA was diluted to a concentration of 40 mM in detection buffer. Four times concentrated ULight/Eu-antibody (from Perkin Elmer) mix solution: ULight-Streptavidin was diluted to a concentration of 100 nM (25 ng/mL final concentrations) and Eu-anti-phospho-Tyrosine (PT66) (from Perkin Elmer) was diluted to a concentration of 8 nM (2 ng/mL final concentration) in detection buffer.
# (§2) Cell-free in vitro kinase assay was performed in 384 well plates. Two times concentrated compound solution (5 μL) was pipetted into a HTS 384SV Small Volume Plate. Four times concentrated Substrate/ATP mix (2.5 μL) solution was added along with 4 times concentrated Enzyme solution (2.5 μL). Plate was covered with TopSeal-A and incubated at room temperature for indicated time (Table 3). Four times concentrated Stop solution (5 μL, 10 mM final concentration) was added and incubated for 5 minutes at room temperature. Four times concentrated ULight/Eu-antibody mix solution (5 μL) was added and again plate was covered with TopSeal and incubated overnight at 4° C. TopSeal was removed and HTRF signal was measured at 615 nm and […] (excitation at 320 or 340 nm) on Tecan M1000 Multi mode plate reader. Ratio (665 nm/615 nm)×10^4 was calculated and IC50 values were deduced from Graph-pad prism 4.2.
# [2] = molecular target: T2, JAK2 (Homo sapiens, UniProt O60674); test: In vitro enzyme assay (cell-free HTRF kinase assay), JAK2; settings: catalytic domain, His-tag; ATP 10 μM, SRCtide 25 nM, reaction 30 min
# T2 construct: All enzymes only contain the catalytic domain; His (N); purchased Carna Bioscience, Inc; host or cells: baculovirus expression system
# Experimental: as §1, §2
# [3] = molecular target: T3, JAK3 (Homo sapiens, UniProt P52333); test: In vitro enzyme assay (cell-free HTRF kinase assay), JAK3; settings: catalytic domain, His-tag; ATP 3 μM, SRCtide 100 nM, reaction 30 min
# T3 construct: All enzymes only contain the catalytic domain; His (N); purchased Carna Bioscience, Inc; host or cells: baculovirus expression system
# Experimental: as §1, §2
# T1 sequence (P23458 850-1154): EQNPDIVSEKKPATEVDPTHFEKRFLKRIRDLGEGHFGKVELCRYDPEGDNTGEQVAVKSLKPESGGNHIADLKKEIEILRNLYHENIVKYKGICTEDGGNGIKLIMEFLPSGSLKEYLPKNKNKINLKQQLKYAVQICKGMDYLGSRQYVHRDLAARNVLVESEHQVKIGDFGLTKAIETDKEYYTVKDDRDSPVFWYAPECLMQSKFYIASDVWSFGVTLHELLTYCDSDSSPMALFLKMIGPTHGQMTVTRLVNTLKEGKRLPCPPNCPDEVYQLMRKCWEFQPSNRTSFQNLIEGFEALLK
# T2 sequence (O60674 849-1124 limits assumed): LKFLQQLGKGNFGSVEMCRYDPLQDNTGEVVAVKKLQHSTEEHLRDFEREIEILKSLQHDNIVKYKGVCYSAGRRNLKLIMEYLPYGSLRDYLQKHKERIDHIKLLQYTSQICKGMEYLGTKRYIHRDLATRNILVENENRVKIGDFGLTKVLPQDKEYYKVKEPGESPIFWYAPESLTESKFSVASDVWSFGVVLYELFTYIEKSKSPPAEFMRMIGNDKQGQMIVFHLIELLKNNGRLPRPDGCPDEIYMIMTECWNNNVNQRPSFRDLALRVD
# T3 sequence (P52333 822-1111 limits assumed): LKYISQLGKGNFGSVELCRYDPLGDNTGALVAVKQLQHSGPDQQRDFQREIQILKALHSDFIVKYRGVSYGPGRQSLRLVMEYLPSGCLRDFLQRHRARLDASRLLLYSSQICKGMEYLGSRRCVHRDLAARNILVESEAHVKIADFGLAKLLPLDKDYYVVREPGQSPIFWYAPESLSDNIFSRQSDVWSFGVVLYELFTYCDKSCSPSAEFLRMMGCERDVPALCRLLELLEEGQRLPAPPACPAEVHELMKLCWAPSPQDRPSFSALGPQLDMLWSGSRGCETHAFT
SMILES,pIC50 [1],pIC50 [2],pIC50 [3]
"N#Cc1cc(Cl)c(C(=O)c2c[nH]c3c(NC(=O)C4CC4)nccc23)c(Cl)c1 [Compound No. 39, N-[3-(2,6-Dichloro-4-cyanobenzoyl)-1H-pyrrolo[2,3-c]pyridin-7-yl]cyclopropanecarboxamide]",> 6.30,> 7.30,> 7.30
"O=C(c1c(F)cccc1Cl)c1c[nH]c2c(NC(=O)C3CC3)nccc12 [Compound No. 11, N-[3-(2-Chloro-6-fluorobenzoyl)-1H-pyrrolo[2,3-c]pyridin-7-yl]cyclopropanecarboxamide]",> 6.30,> 7.00,> 7.00
"O=C(NCCCO)c1cc(F)c(C(=O)c2c[nH]c3c(NC(=O)C4CC4)nccc23)c(F)c1 [Compound No. 62, 4-({7-[(Cyclopropylcarbonyl)amino]-1H-pyrrolo[2,3-c]pyridin-3-yl}carbonyl)-3,5-difluoro-N-(3-hydroxypropyl)benzamide]",> 6.00,> 6.30,> 6.30
"O=C(NCCOCCO)c1cc(Cl)c(C(=O)c2c[nH]c3c(NC(=O)C4CC4)nccc23)c(Cl)c1 [Compound No. 29, 3,5-Dichloro-4-({7-[(cyclopropylcarbonyl)amino]-1H-pyrrolo[2,3-c]pyridin-3-yl}carbonyl)-N-[2-(2-hydroxyethoxy)ethyl]benzamide]",> 6.00,> 6.00,> 6.30
"CN(C)CCNC(=O)c1cc(Cl)c(C(=O)n2ccc3c(NC(=O)C4CC4)nccc32)c(Cl)c1 [Compound No. 122, 3,5-Dichloro-4-({4-[(cyclopropylcarbonyl)amino]-1H-pyrrolo[3,2-c]pyridin-1-yl}carbonyl)-N-[2-(dimethylamino)ethyl]benzamide]",> 6.00,> 6.30,> 7.00
"CCNC(=O)Nc1cc(Cl)c(C(=O)n2ccc3c(NC(=O)C4CC4)nccc32)c(Cl)c1 [Compound No. 103, N-(1-{2,6-Dichloro-4-[(ethylcarbamoyl)amino]benzoyl}-1H-pyrrolo[3,2-c]pyridin-4-yl)cyclopropanecarboxamide]",> 6.00,> 6.30,> 6.30
"O=C(c1c(Cl)cccc1Cl)c1c[nH]c2cnc(NC(=O)C3CC3)cc12 [Compound No. 18, N-[3-(2,6-Dichlorobenzoyl)-1H-pyrrolo[2,3-c]pyridin-5-yl]cyclopropanecarboxamide]",> 6.00,> 7.00,> 6.00
"CNC(=O)c1cc(F)c(C(=O)c2c[nH]c3c(NC(=O)C4CC4)nccc23)c(F)c1 [Compound No. 61, 4-({7-[(Cyclopropylcarbonyl)amino]-1H-pyrrolo[2,3-c]pyridin-3-yl}carbonyl)-3,5-difluoro-N-methylbenzamide]",> 6.00,> 6.30,> 6.30
"Nc1cc(Cl)c(C(=O)c2c[nH]c3cnccc23)c(Cl)c1 [Compound No. 3, (4-Amino-2,6-dichlorophenyl)(1H-pyrrolo[2,3-c]pyridin-3-yl)methanone]",> 6.00,> 6.30,> 6.00
"O=C(Nc1cc2c(ccn2C(=O)c2c(Cl)cccc2Cl)cn1)C1CC1 [Compound No. 120, N-[1-(2,6-Dichlorobenzoyl)-1H-pyrrolo[3,2-c]pyridin-6-yl]cyclopropanecarboxamide]",> 7.00,> 7.30,> 7.30
"N#Cc1cc(Cl)c(C(=O)c2c[nH]c3cnccc23)c(Cl)c1 [Compound No. 6, 3,5-Dichloro-4-(1H-pyrrolo[2,3-c]pyridin-3-ylcarbonyl)benzonitrile]",> 6.30,> 6.30,> 6.30
"NCCNC(=O)c1cc(Cl)c(C(=O)n2ccc3c(NC(=O)C4CC4)nccc32)c(Cl)c1 [Compound No. 127, N-(2-Aminoethyl)-3,5-dichloro-4-({4-[(cyclopropylcarbonyl)amino]-1H-pyrrolo[3,2-c]pyridin-1-yl}carbonyl)benzamide]",> 6.30,> 7.00,> 7.30
"COCCNC(=O)Nc1cc(Cl)c(C(=O)n2ccc3c(NC(=O)C4CC4)nccc32)c(Cl)c1 [Compound No. 111, N-[1-(2,6-Dichloro-4-{[(2-methoxyethyl)carbamoyl]amino}benzoyl)-1H-pyrrolo[3,2-c]pyridin-4-yl]cyclopropanecarboxamide]",> 6.00,> 6.30,> 6.30
"O=C(Nc1nccc2c1ccn2C(=O)c1c(Cl)cc(-c2cncnc2)cc1Cl)C1CC1 [Compound No. 89, N-{1-[2,6-Dichloro-4-(pyrimidin-5-yl)benzoyl]-1H-pyrrolo[3,2-c]pyridin-4-yl}cyclopropanecarboxamide]",> 6.00,> 7.30,> 6.30
"O=C(NCC1CC1)c1cc(Cl)c(C(=O)n2ccc3c(NC(=O)C4CC4)nccc32)c(Cl)c1 [Compound No. 170, 3,5-Dichloro-4-({4-[(cyclopropylcarbonyl)amino]-1H-pyrrolo[3,2-c]pyridin-1-yl}carbonyl)-N-(cyclopropylmethyl)benzamide]",> 6.30,> 6.00,> 6.00
"O=C(NCC1CC1)c1cc(Cl)c(C(=O)c2c[nH]c3c(NC(=O)C4CC4)nccc23)c(Cl)c1 [Compound No. 55, 3,5-Dichloro-4-({7-[(cyclopropylcarbonyl)amino]-1H-pyrrolo[2,3-c]pyridin-3-yl}carbonyl)-N-(cyclopropylmethyl)benzamide]",> 6.30,> 6.30,> 6.30
"O=C(NCCN1CCCC1)c1cc(Cl)c(C(=O)n2ccc3c(NC(=O)C4CC4)nccc32)c(Cl)c1 [Compound No. 148, 3,5-Dichloro-4-({4-[(cyclopropylcarbonyl)amino]-1H-pyrrolo[3,2-c]pyridin-1-yl}carbonyl)-N-[2-(pyrrolidin-1-yl)ethyl]benzamide]",> 6.30,> 6.30,> 7.00
"O=C(NCCF)c1cc(F)c(C(=O)c2c[nH]c3c(NC(=O)C4CC4)nccc23)c(F)c1 [Compound No. 59, 4-({7-[(Cyclopropylcarbonyl)amino]-1H-pyrrolo[2,3-c]pyridin-3-yl}carbonyl)-3,5-difluoro-N-(2-fluoroethyl)benzamide]",> 6.30,> 6.30,> 6.30
"COC(=O)CNC(=O)c1cc(Cl)c(C(=O)c2c[nH]c3c(NC(=O)C4CC4)nccc23)c(Cl)c1 [Compound No. 35, Methyl N-[3,5-dichloro-4-({7-[(cyclopropylcarbonyl)amino]-1H-pyrrolo[2,3-c]pyridin-3-yl}carbonyl)benzoyl]glycinate]",> 6.30,> 6.30,> 6.30
"O=C(Nc1nccc2c1ccn2C(=O)c1c(Cl)cc(CNCCN2CCNC2=O)cc1Cl)C1CC1 [Compound No. 165, N-{1-[2,6-Dichloro-4-({[2-(2-oxoimidazolidin-1-yl)ethyl]amino}methyl)benzoyl]-1H-pyrrolo[3,2-c]pyridin-4-yl}cyclopropanecarboxamide]",> 6.00,> 6.30,> 6.30
"O=C(Nc1nccc2c1ccn2C(=O)c1c(Cl)cc(CNCCCN2CCOCC2)cc1Cl)C1CC1 [Compound No. 166, N-{1-[2,6-Dichloro-4-({[3-(morpholin-4-yl)propyl]amino}methyl)benzoyl]-1H-pyrrolo[3,2-c]pyridin-4-yl}cyclopropanecarboxamide]",> 6.30,> 6.00,> 6.30
"O=C(NCCO)Nc1cc(Cl)c(C(=O)n2ccc3c(NC(=O)C4CC4)nccc32)c(Cl)c1 [Compound No. 115, N-[1-(2,6-Dichloro-4-{[(2-hydroxyethyl)carbamoyl]amino}benzoyl)-1H-pyrrolo[3,2-c]pyridin-4-yl]cyclopropanecarboxamide]",> 6.00,> 6.30,> 6.30

# — US8980911B2, “Heterocyclic compounds as protein kinase inhibitors” (Daiichi Sankyo Company, Limited, priority 2011, dated 2015)
